The text below walks through data of US20150328109A1, “DERMAL COMPOSITIONS CONTAINING UNNATURAL HYGROSCOPIC AMINO ACIDS” (MEDPHARM LIMITED, priority 2012, published 2015).

A short description of data set [1]: Deliquescence relative humidity (DRH) of a saturated solution in a sealed vessel at 32° C. Type of data set: physicochemical. To be noted: saturated solution in water (1 mL), 24 hours, mass used printed beside the name. How it is done: This experiment was to measure the deliquescence relative humidity (DRH) caused by a saturated amino acid solution in a sealed vessel at 32° C.; the lower the DRH, the greater the water holding capacity of the solution measured. Deliquescence relative humidity is the relative humidity at which the compound deliquesces, i.e. the relative humidity in which the compound absorbs so much water that it dissolves within the absorbed water.
The apparatus is maintained at 32° C. The temperature of 32° C. was chosen for being the temperature of outer stratum corneum. As the amino acids are to eventually be delivered to the outer layer of the skin, then the water holding capacity of these compounds at 32° C. is important.
The saturated solution is prepared as above by adding the amino acid to water (1 mL, 32° C.), whilst swirling. The total amino acid is weighed before adding to the water and the remaining amino acid so that the mass of compound used can be determined. The saturated solution (1 mL, 32° C.) is then transferred into the vial, again because of partial molar volume causing a change in volume by the addition of the amino acid to the water.
The temperature and % RH (% Relative Humidity) shown on the thermo-hygrometer are recorded every 30 minutes until the % RH remains constant. The temperature confirms that the temperature experienced by the sample is 32° C.

For a further data set, the system named is Psoriatic tissues. In words: Tissue viability (MTT) of psoriatic tissue during 6 day treatment. Type of data set: cell-based, human. To be noted: for irritancy conclusion from tissue viability over 6 days: 6 day dosing period; for Psoriatic tissues as a percentage of untreated control (%): 10% w/v, n = 1. From the text: (§1) A human cell based in vitro psoriatic tissue model consisting of psoriatic fibroblasts and normal keratinocytes was used in this study. […] GM-CSF is a key activator of the innate immune system involved in chronic inflammatory and autoimmune diseases including psoriasis (Löntz et al 1995), where macrophages, granulocytes, neutrophils, eosinophils and dendritic cells can contribute to tissue damage and disease progression (Krinner 2007). GM-CSF stimulates stem cells to produce granulocytes and other macrophages and subsequently activates these differentiated immune cells. GM-CSF has also been identified as an inflammatory mediator in autoimmune disorders with elevated levels of GM-CSF mRNA or protein being measured in a variety of inflammatory sites including in allergic and psoriatic patients, arthritic and asthmatic patients (Plater-Zyberk et al 2008). Numerous in vivo studies over the past few years have shown that blockade of GM-CSF via neutralising antibodies can prevent or even cure pro-inflammatory diseases in various models of inflammation including arthritis experimental autoimmune encephalitis, psoriasis (Schon et al 2000), and lung disease (Plater-Zyberk et al 2008). […] Due to the importance of GM-CSF in psoriasis it was selected for analysis in this study.
In this investigation two types of RHE tissues were used, which were healthy and psoriatic tissue sourced from the MatTek Corporation (Ashland, Mass.). For simplicity the protocol below refers to both tissue types as RHE tissues and all media as assay medium as both tissues were treated in the same manner. The only exception was that two different types of media were required for the different types of tissue (healthy and psoriatic tissues).
• (i) At the end of the equilibration period, the media for each well was removed then the tissues were lifted and placed on culture stands and fresh pre-warmed (37° C.) assay medium (5 mL) was added to the well. • (ii) Using a positive displacement pipette, the test solutions 10% w/v, N-H-S(N-hydroxyserine) in water, […], N-H-G (N-hydroxyglycine) in water, 10% w/v, L-h-S (L-homoserine) in water and 10% w/v, combination 1:1:1 (N-H-S:N-H-G: L-h-S) in water were dispensed (50±0.5 μL) onto the top of the RHE tissue. The solutions or controls were then distributed over the surface of the RHE tissues using a sterile glass rod. • (iii) The lid was placed on the well plate containing the RHE tissue and the tissues were returned to the incubator (37° C., 5% CO2) 48 h between applications.
• (i) Every 48 h culture media for the RHE tissues was removed from the 6 well plates and transferred into tubes stored (−20° C.) for cytokine analysis. • (ii) Fresh pre-warmed (37° C.) assay medium (5 mL) was added to each tissue using an automatic pipette. • (iii) From each treatment 1 tissue was removed for viability assessment. • (iv) The RHE tissues were subsequently rinsed with 100 μL of PBS to remove the residual solution from the epidermal surface. • (v) Using a positive displacement pipette, the solutions 10% w/v, N-H-S in water, 1% w/v, N-H-G in water, 10% w/v, L-h-S in water and 10% w/v, combination 1:1:1 (N-H-S:N-H-G:L-h-S) were dispensed (50±0.5 μL) onto the top of the RHE tissue. The solutions or controls were then distributed over the surface of the RHE tissues using a sterile glass rod. • (vi) The lid was placed on the well plate containing the RHE tissue and the tissues were returned to the incubator (37° C., 5% CO2) 48 h between applications at t=0, 48 and 96 h. […]

The subject of the next data set is GM-CSF. In words: GM-CSF release from in vitro psoriatic tissue model (ELISA). Type of data set: cell-based, human. To be noted: over 6 days; 10% w/v N-H-S, 1% w/v N-H-G, 10% w/v L-h-S, 10% w/v combination 1:1:1 in water.
From the text: as §1
In this investigation two types of RHE tissues were used, which were healthy and psoriatic tissue sourced from the MatTek Corporation (Ashland, Mass.). For simplicity the protocol below refers to both tissue types as RHE tissues and all media as assay medium as both tissues were treated in the same manner. The only exception was that two different types of media were required for the different types of tissue (healthy and psoriatic tissues). […]
In general terms: An ELISA detects its analyte on a solid surface through an enzyme-linked reagent.

Several values for one entry are separate records, joined by “and”; a condition that tells them apart may be missing. Equal entries are not always repeated.

In the case of `N[C@@H](CCO)C(=O)O` [L-homoserine], in data set [1], the DRH is 71.4% and 71.37%. Further, in the data set on Psoriatic tissues, the “irritancy conclusion from tissue viability over 6 days” value (“irritancy conclusion … over 6 days” below) is “non-irritants”. The “release of GM-CSF from psoriasis tissues compared to untreated psoriasis tissues” value in the data set on GM-CSF was “reduced”.
On to `O=C(O)[C@H](CO)NO` [N-hydroxyserine], for which the DRH in data set [1] was 68.3%. Also, the “Psoriatic tissues as a percentage of untreated control (%)” value with Psoriatic tissues (2 days in treatments) worked out at 94.0%; in the data set on Psoriatic tissues (4 days in treatments), 75.3%; in the data set on Psoriatic tissues (6 days in treatments), 96.0%. For the same molecule, the “irritancy conclusion … over 6 days” value is recorded as “non-irritant” with Psoriatic tissues and “non-irritating” in the data set with Psoriatic tissues (listed as N-H-S). For the same molecule, the “release of GM-CSF from psoriasis tissues compared to untreated psoriasis tissues” value with GM-CSF is given as “reduced”.
Take `O=C(O)CNO` [N-hydroxyglycine, N-Hydroxyglycine]: the DRH in data set [1] is 68.1%. Also, the figures for the “Psoriatic tissues as a percentage of untreated control (%)” value in the data set on Psoriatic tissues (2 days in treatments), in the data set with Psoriatic tissues (4 days in treatments) and in the data set on Psoriatic tissues (6 days in treatments) were 87.1%, 77.6% and 89.6%, respectively. Also, the “irritancy conclusion … over 6 days” value with Psoriatic tissues is on record as “non-irritants”; in the data set on Psoriatic tissues (listed as N-H-G) it was “non-irritating”. The “release of GM-CSF from psoriasis tissues compared to untreated psoriasis tissues” value in the data set with GM-CSF was “reduced”.
